# Laboratory results from ChEMBL document CHEMBL1201862, “PubChem BioAssay data set” (2004).
#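 Values below derive from 48-hour exposures of cells grown in 96-well plates, with endpoints linearly interpolated between the two concentrations bracketing the appropriate inhibition level. Here, GI50 denotes the concentration required for 50% inhibition of growth.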 Activity calls are given as the source filed them. No stated cut-off is given here; in the data, active = GI50 up to about 1.1 µM and inactive = higher.
# How the values were obtained:
# Assay in all cases: DTP human tumour cell line panel, 48 h
# KM12 = tested on: KM12
# SNB-78 = tested on: SNB-78
# RXF 631 = tested on: RXF 631
# NCI-H23 = tested on: NCI-H23
# SF-268 = tested on: SF-268
# SN12C = tested on: SN12C
# SK-MEL-2 = tested on: SK-MEL-2
# M14 = tested on: M14
# RXF 393 = tested on: RXF 393
# COLO 205 = tested on: COLO 205
# SK-MEL-28 = tested on: SK-MEL-28
# RPMI-8226 = tested on: RPMI-8226
# TK-10 = tested on: TK-10
# CCRF-CEM = tested on: CCRF-CEM
# DMS-114 = tested on: DMS-114
# HOP-18 = tested on: HOP-18
# ACHN = tested on: ACHN
# OVCAR-4 = tested on: OVCAR-4
# HOP-62 = tested on: HOP-62
# HCT-15 = tested on: HCT-15
# MOLT-4 = tested on: MOLT-4
# UO-31 = tested on: UO-31
# HOP-92 = tested on: HOP-92
# NCI-H460 = tested on: NCI-H460
# SNB-19 = tested on: SNB-19
# DMS-273 = tested on: DMS-273
# OVCAR-3 = tested on: OVCAR-3
# UACC-62 = tested on: UACC-62
# Malme-3M = tested on: Malme-3M
# LOX IMVI = tested on: LOX IMVI
# NCI-H522 = tested on: NCI-H522
# SNB-75 = tested on: SNB-75
# HT-29 = tested on: HT-29
# HCT-116 = tested on: HCT-116
# SF-295 = tested on: SF-295
# SW-620 = tested on: SW-620
# SF-539 = tested on: SF-539
# LXFL 529 = tested on: LXFL 529
# SK-OV-3 = tested on: SK-OV-3
# 786-0 = tested on: 786-0
# U-251 = tested on: U-251
# UACC-257 = tested on: UACC-257
# IGROV-1 = tested on: IGROV-1
# A549 = tested on: A549
# A498 = tested on: A498
# HCC 2998 = tested on: HCC 2998
# EKVX = tested on: EKVX
# KM-20L2 = tested on: KM-20L2
# OVCAR-8 = tested on: OVCAR-8
# HL-60 = tested on: HL-60
# M19-MEL = tested on: M19-MEL
# K562 = tested on: K562
# DLD-1 = tested on: DLD-1
# MDA-N = tested on: MDA-N
# SR = tested on: SR
# NCI-H226 = tested on: NCI-H226
# BT-549 = tested on: BT-549
# CAKI-1 = tested on: CAKI-1
# DU-145 = tested on: DU-145
# NCI/ADR-RES = tested on: NCI/ADR-RES
# T47D = tested on: T47D
# SK-MEL-5 = tested on: SK-MEL-5
# MCF7 = tested on: MCF7
# Hs-578T = tested on: Hs-578T
# PC-3 = tested on: PC-3
# OVCAR-5 = tested on: OVCAR-5
# MDA-MB-231 = tested on: MDA-MB-231
# XF498 = tested on: XF498
# MDA-MB-435 = tested on: MDA-MB-435
smiles,measurement,setting,value
O=C(CC(=O)N1N=C(n2ccc3ccccc32)CC1c1ccccc1)Nc1ccccc1Cl (stereo not given),GI50,KM12,> 100 µM (inactive)
same,GI50,SNB-78,> 100 µM (inactive)
same,GI50,RXF 631,> 100 µM (inactive)
same,GI50,NCI-H23,> 100 µM (inactive)
same,GI50,SF-268,> 100 µM (inactive)
same,GI50,SN12C,> 100 µM (inactive)
same,GI50,SK-MEL-2,> 100 µM (inactive)
same,GI50,M14,> 100 µM (inactive)
same,GI50,RXF 393,> 100 µM (inactive)
same,GI50,COLO 205,> 100 µM (inactive)
same,GI50,SK-MEL-28,> 100 µM (inactive)
same,GI50,RPMI-8226,> 100 µM (inactive)
same,GI50,TK-10,> 100 µM (inactive)
same,GI50,CCRF-CEM,> 100 µM (inactive)
same,GI50,DMS-114,> 100 µM (inactive)
same,GI50,HOP-18,> 100 µM (inactive)
same,GI50,ACHN,> 100 µM (inactive)
same,GI50,OVCAR-4,> 100 µM (inactive)
same,GI50,HOP-62,> 100 µM (inactive)
same,GI50,HCT-15,> 100 µM
same,GI50,MOLT-4,> 100 µM (inactive)
same,GI50,UO-31,> 100 µM (inactive)
same,GI50,HOP-92,32.3 µM (inactive)
same,GI50,NCI-H460,> 100 µM (inactive)
same,GI50,SNB-19,> 100 µM (inactive)
same,GI50,DMS-273,> 100 µM (inactive)
same,GI50,OVCAR-3,> 100 µM (inactive)
same,GI50,UACC-62,> 100 µM (inactive)
same,GI50,Malme-3M,> 100 µM (inactive)
same,GI50,LOX IMVI,> 100 µM (inactive)
same,GI50,NCI-H522,> 100 µM (inactive)
same,GI50,SNB-75,> 100 µM (inactive)
same,GI50,HT-29,> 100 µM (inactive)
same,GI50,HCT-116,> 100 µM (inactive)
same,GI50,SF-295,> 100 µM (inactive)
same,GI50,SW-620,> 100 µM (inactive)
same,GI50,SF-539,> 100 µM (inactive)
same,GI50,LXFL 529,> 100 µM (inactive)
same,GI50,SK-OV-3,> 100 µM (inactive)
same,GI50,786-0,> 100 µM (inactive)
same,GI50,U-251,> 100 µM (inactive)
same,GI50,UACC-257,> 100 µM (inactive)
same,GI50,IGROV-1,> 100 µM (inactive)
same,GI50,A549,> 100 µM (inactive)
same,GI50,A498,> 100 µM (inactive)
same,GI50,HCC 2998,> 100 µM (inactive)
same,GI50,EKVX,> 100 µM (inactive)
same,GI50,KM-20L2,> 100 µM (inactive)
same,GI50,OVCAR-8,> 100 µM (inactive)
same,GI50,HL-60,> 100 µM (inactive)
same,GI50,M19-MEL,> 100 µM (inactive)
same,GI50,K562,> 100 µM (inactive)
COC1=CC(=O)c2c(O)c3c(c(O)c2C1=O)C[C@](C)(O)C[C@@H]3O,GI50,KM12,4.13 µM (inactive)
same,GI50,DLD-1,1.31 µM (inactive)
same,GI50,SNB-78,3.85 µM (inactive)
same,GI50,RXF 631,1.95 µM (inactive)
same,GI50,NCI-H23,2.43 µM (inactive)
same,GI50,SF-268,5.25 µM (inactive)
same,GI50,MDA-N,1.88 µM (inactive)
same,GI50,SN12C,3.63 µM (inactive)
same,GI50,SK-MEL-2,3.35 µM (inactive)
same,GI50,M14,2.6 µM (inactive)
same,GI50,SR,2.92 µM (inactive)
same,GI50,RXF 393,5.3 µM (inactive)
same,GI50,COLO 205,1.77 µM (inactive)
same,GI50,SK-MEL-28,7.05 µM (inactive)
same,GI50,RPMI-8226,8.11 µM (inactive)
same,GI50,TK-10,23.2 µM (inactive)
same,GI50,CCRF-CEM,5.7 µM (inactive)
same,GI50,NCI-H226,23.9 µM (inactive)
same,GI50,DMS-114,1.46 µM (inactive)
same,GI50,BT-549,7.76 µM (inactive)
same,GI50,ACHN,5.15 µM (inactive)
same,GI50,OVCAR-4,3.72 µM (inactive)
same,GI50,HOP-62,8.45 µM (inactive)
same,GI50,HCT-15,4.01 µM
same,GI50,MOLT-4,7.8 µM (inactive)
same,GI50,UO-31,11.4 µM (inactive)
same,GI50,HOP-92,9.48 µM (inactive)
same,GI50,NCI-H460,1.65 µM (inactive)
same,GI50,SNB-19,4.92 µM (inactive)
same,GI50,CAKI-1,17.4 µM (inactive)
same,GI50,DMS-273,1.57 µM (inactive)
same,GI50,OVCAR-3,0.861 µM (active)
same,GI50,UACC-62,1.46 µM (inactive)
same,GI50,DU-145,4.11 µM (inactive)
same,GI50,NCI/ADR-RES,3.78 µM (inactive)
same,GI50,T47D,6.98 µM (inactive)
same,GI50,SK-MEL-5,1.33 µM (inactive)
same,GI50,Malme-3M,1.03 µM (active)
same,GI50,MCF7,4.89 µM (inactive)
same,GI50,LOX IMVI,2.54 µM (inactive)
same,GI50,NCI-H522,4.52 µM (inactive)
same,GI50,Hs-578T,18.2 µM (inactive)
same,GI50,SNB-75,9.42 µM (inactive)
same,GI50,HT-29,2.72 µM (inactive)
same,GI50,HCT-116,2.61 µM (inactive)
same,GI50,SF-295,3.51 µM (inactive)
same,GI50,SW-620,3.92 µM (inactive)
same,GI50,SF-539,3.08 µM (inactive)
same,GI50,LXFL 529,3.81 µM (inactive)
same,GI50,SK-OV-3,14.1 µM (inactive)
same,GI50,786-0,7.76 µM (inactive)
same,GI50,U-251,4.69 µM (inactive)
same,GI50,UACC-257,1.99 µM (inactive)
same,GI50,IGROV-1,4.61 µM (inactive)
same,GI50,PC-3,3.4 µM (inactive)
same,GI50,A549,2.93 µM (inactive)
same,GI50,A498,7.66 µM (inactive)
same,GI50,HCC 2998,3.67 µM (inactive)
same,GI50,EKVX,8.04 µM (inactive)
same,GI50,OVCAR-5,12.7 µM (inactive)
same,GI50,MDA-MB-231,7.74 µM (inactive)
same,GI50,KM-20L2,> 100 µM (inactive)
same,GI50,OVCAR-8,4.07 µM (inactive)
same,GI50,HL-60,1.62 µM (inactive)
same,GI50,M19-MEL,0.296 µM (active)
same,GI50,XF498,2.86 µM (inactive)
same,GI50,K562,4.24 µM (inactive)
same,GI50,MDA-MB-435,1.88 µM (inactive)
